Among the test systems are DLD-1; NCI-H522; SF-295; Malme-3M; A549; SNB-75; SF-539; U-251; A498; NCI-H226; SF-268; SK-MEL-2; LOX IMVI; OVCAR-3; KM12; SK-MEL-5; TK-10; SR; HCC 2998; XF498.
Common to all, as to assay: inhibition of tumour cell growth, NCI panel, 48 h

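Dose response: 5 concentrations. Exposure: 48 h. Format: 96-well plates. Endpoint: linear interpolation; highest concentration if not reached. GI50 is the concentration that inhibits growth by half.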 Active and inactive are the calls of the source. Rule as the data show it: active = GI50 up to about 1.1 µM and inactive = higher. Bounds are passed on as bounds.

On to `Cc1n(CC(=O)c2ccc([N+](=O)[O-])cc2)c2c([n+]1CC(C)C)C(=O)c1ccccc1C2=O`, for which the GI50 was < 0.0394 µM (active) with DLD-1; < 0.01 µM (active) with NCI-H522; 0.329 µM (active) in the assay on SF-295; < 0.01 µM (active) in the assay on Malme-3M; < 0.0318 µM (active) with A549; < 0.0356 µM (active) with SNB-75. The GI50 in the assay with SF-539 is < 0.01 µM (active); in the assay on U-251 it was < 0.01 µM (active); with A498 it was 0.668 µM (active); in the assay on NCI-H226 it was < 0.0111 µM (active); with SF-268, < 0.01 µM (active); with SK-MEL-2 it was < 0.0123 µM (active). In addition, the GI50 is < 0.01 µM (active) in the assay on LOX IMVI, < 0.0424 µM (active) in the assay with OVCAR-3, < 0.0211 µM (active) in the assay with KM12 and < 0.0106 µM (active) in the assay on SK-MEL-5.
On to `CC1(Cl)CC2C(CC1Sc1nnnn1-c1ccccc1)C2(C)C` (stereo not given), for which the GI50 with DLD-1 was > 100 µM (inactive); with SF-295, 40.8 µM (inactive); in the assay on A549 it was 67.1 µM (inactive); in the assay with TK-10 it was > 100 µM (inactive); with SF-539, > 100 µM (inactive); in the assay on NCI-H226, > 100 µM (inactive). Besides, the GI50 with SR is 29.6 µM (inactive); in the assay with SF-268 it was > 100 µM (inactive); in the assay with SK-MEL-2, > 100 µM (inactive); in the assay on LOX IMVI, > 100 µM (inactive); with OVCAR-3, 38.7 µM (inactive); with KM12 it was 55.6 µM (inactive). In addition, the GI50 was 58.2 µM (inactive) with SK-MEL-5 and > 100 µM (inactive) in the assay on HCC 2998.
`O=NN(CC1(O)OCC(O)C(O)C1O)C(Cc1c[nH]c2ccccc12)C(=O)O` (stereo not given): the GI50 in the assay with DLD-1, in the assay with NCI-H522, with Malme-3M, with A549, in the assay with TK-10 and in the assay on SNB-75 was > 100 µM (inactive) each time. Moreover, the GI50 in the assay on SF-539, with U-251, in the assay with A498, in the assay with XF498, in the assay with SK-MEL-2 and in the assay on LOX IMVI was > 100 µM (inactive) throughout. Also, the GI50 with OVCAR-3, in the assay with KM12, with SK-MEL-5 and in the assay on HCC 2998 was > 100 µM (inactive) in each case.
As to `O=C(OCCO)C1CC2CC1C1(C2)OCCO1` (stereo not given), the GI50 in the assay on DLD-1, with NCI-H522, in the assay on SF-295, with Malme-3M, with A549 and in the assay on TK-10 was > 100 µM (inactive) throughout. The GI50 in the assay with SNB-75, with SF-539, with U-251, with A498, in the assay on NCI-H226 and in the assay on XF498 was > 100 µM (inactive) throughout. In addition, the GI50 in the assay with SF-268, with SK-MEL-2, in the assay on LOX IMVI, in the assay with OVCAR-3, in the assay on KM12 and in the assay on SK-MEL-5 was > 100 µM (inactive) each time.
As to `NCCCCCC(CCN)SCC1OC(n2cnc3c(N)ncnc32)C(O)C1O` (stereo not given), the GI50 is > 1500 µM (inactive) with DLD-1; 822 µM (inactive) in the assay with NCI-H522; 469 µM (inactive) in the assay on SF-295; > 1280 µM (inactive) in the assay on Malme-3M; > 1500 µM (inactive) with A549; > 1500 µM (inactive) in the assay with SNB-75. Moreover, the GI50 in the assay on SF-539 is 483 µM (inactive); in the assay with U-251, 687 µM (inactive); in the assay with A498, > 1500 µM (inactive); with NCI-H226 it was 589 µM (inactive); in the assay with XF498, > 15 µM (inactive); in the assay with SF-268, 1460 µM (inactive). The GI50 in the assay on SK-MEL-2 is > 1500 µM (inactive); in the assay with LOX IMVI, > 1060 µM (inactive); in the assay on OVCAR-3 it was > 1500 µM (inactive); with KM12 it was 416 µM (inactive); with SK-MEL-5 it was > 1110 µM (inactive); in the assay on HCC 2998, > 1150 µM (inactive).
In the case of `c1ccc2c(NCCCCCCCCNc3cccc4ccccc34)cccc2c1`, the GI50 with DLD-1 was 34.2 µM (inactive); with NCI-H522 it was 16.4 µM (inactive); in the assay with SF-295 it was > 100 µM (inactive); in the assay with Malme-3M, 22 µM (inactive); in the assay on A549 it was > 100 µM (inactive); with TK-10, 24.3 µM (inactive). Also, the GI50 in the assay with SNB-75 is 21.4 µM (inactive); in the assay with SF-539 it was 27 µM (inactive); with U-251, 63.2 µM (inactive); with A498, 44.1 µM (inactive); in the assay with NCI-H226, 85.1 µM (inactive); in the assay with XF498 it was 78.9 µM (inactive). The GI50 in the assay on SF-268 is 65 µM (inactive); in the assay on SK-MEL-2, 35.8 µM (inactive); in the assay on OVCAR-3, 34 µM (inactive); with KM12 it was > 100 µM (inactive); in the assay on SK-MEL-5 it was > 10 µM (inactive); with HCC 2998 it was > 100 µM (inactive).
Turning to `Cc1nc2c(n1C)C(=O)c1nc(CBr)[nH]c(=O)c1C2=O`, the GI50 is > 100 µM (inactive) in the assay on DLD-1; > 100 µM (inactive) in the assay on NCI-H522; 0.938 µM (active) in the assay with SF-295; > 100 µM (inactive) in the assay on A549; > 100 µM (inactive) in the assay on TK-10; > 100 µM (inactive) with SF-539. The GI50 was > 100 µM (inactive) in the assay with U-251; > 100 µM (inactive) with A498; > 10 µM (inactive) in the assay on XF498; > 100 µM (inactive) in the assay on SF-268; 46.5 µM (inactive) with LOX IMVI; 20.3 µM (inactive) with SK-MEL-5.
As for `CSCC[C@@H](NC(=O)[C@H](CC(C)C)NC(=O)C(Cc1cnc[nH]1)NC(=O)CNC(=O)[C@@H](NC(=O)[C@H](C)NC(=O)[C@H](Cc1cn(C=O)c2ccccc12)NC(=O)[C@H](CCC(N)=O)NC(=O)[C@@H](N)CC(N)=O)C(C)C)C(N)=O` (stereo not given in full), the GI50 with DLD-1, in the assay with NCI-H522, with SF-295, with Malme-3M, in the assay with A549 and with SNB-75 was > 100 µM (inactive) each time. Further, the GI50 with SF-539, in the assay on U-251, with A498, with NCI-H226, in the assay on XF498 and in the assay with SF-268 was > 100 µM (inactive) each time. For the same molecule, the GI50 with SK-MEL-2 is > 100 µM (inactive); with LOX IMVI, 53.8 µM (inactive); in the assay with OVCAR-3, > 100 µM (inactive); in the assay on KM12 it was > 100 µM (inactive); in the assay with SK-MEL-5, > 100 µM (inactive); in the assay on HCC 2998, > 100 µM (inactive).
`COc1c(O)c(C=O)c2c(O)c(-c3c(C)cc4c(C(C)C)c(OC)c(O)c(C=O)c4c3O)c(C)cc2c1C(C)C` [6,6'-METHOXYGOSSYPOL]: the GI50 was 4.38 µM (inactive) in the assay on DLD-1; 2.62 µM (inactive) in the assay with NCI-H522; 4.19 µM (inactive) with SF-295; 5.75 µM (inactive) in the assay with Malme-3M; 3.52 µM (inactive) in the assay with A549; 6.71 µM (inactive) in the assay on TK-10. The GI50 in the assay on SNB-75 was 2.4 µM (inactive); with SF-539, 4.36 µM (inactive); with U-251 it was 3.2 µM (inactive); in the assay with A498 it was 11.4 µM (inactive); in the assay on NCI-H226 it was 2.43 µM (inactive); with SR, 4.4 µM (inactive). Further, the GI50 in the assay with SF-268 was 5.71 µM (inactive); in the assay with SK-MEL-2 it was 4.45 µM (inactive); with OVCAR-3, 3.37 µM (inactive); with KM12, 5.05 µM (inactive); in the assay with SK-MEL-5 it was 9.23 µM (inactive); in the assay on HCC 2998 it was 2.65 µM (inactive).
For `COc1ccccc1-c1cc(O)c2cc(C)cnc2n1`, the GI50 in the assay with NCI-H522 is 17.2 µM (inactive); with Malme-3M, 24.7 µM (inactive); in the assay on A549, 51.6 µM (inactive); in the assay on TK-10, > 100 µM (inactive); in the assay on SF-539, 38.5 µM (inactive); in the assay on A498, 24.9 µM (inactive). For the same molecule, the GI50 with NCI-H226 is 52.2 µM (inactive); in the assay on SR, > 100 µM (inactive); in the assay on SF-268 it was 52.7 µM (inactive); in the assay with SK-MEL-2 it was 25.2 µM (inactive); in the assay on LOX IMVI, 46 µM (inactive); in the assay on KM12, 5.5 µM (inactive). In the assay on HCC 2998, the GI50 is 62.1 µM (inactive).
`O=C1C(Cl)N(c2ccc([N+](=O)[O-])cc2)C1c1c[nH]c2ccccc12` (stereo not given): the GI50 was 38.1 µM (inactive) in the assay on DLD-1; 56.8 µM (inactive) with NCI-H522; > 100 µM (inactive) in the assay with SF-295; 42.1 µM (inactive) in the assay with Malme-3M; > 100 µM (inactive) in the assay with A549; > 100 µM (inactive) with TK-10. Moreover, the GI50 with SNB-75 was > 100 µM (inactive); in the assay with SF-539 it was 33 µM (inactive); in the assay on U-251, 62.5 µM (inactive); with SR, 19.5 µM (inactive); with XF498 it was > 100 µM (inactive); with SF-268, > 100 µM (inactive). Further, the GI50 in the assay on SK-MEL-2 is > 100 µM (inactive); in the assay on OVCAR-3 it was 47.8 µM (inactive); with KM12, 66.2 µM (inactive); in the assay with SK-MEL-5 it was > 100 µM (inactive).
For `Cc1[nH]c(=O)[nH]c(=O)c1/C=C/C(=O)NC(CO)CC(C)C` (stereo not given), the GI50 is > 375 µM (inactive) with DLD-1; 114 µM (inactive) in the assay with NCI-H522; > 375 µM (inactive) in the assay with SF-295; 233 µM (inactive) in the assay on Malme-3M; 349 µM (inactive) in the assay with A549; 226 µM (inactive) in the assay with SNB-75. Also, the GI50 was > 375 µM (inactive) with SF-539; > 343 µM (inactive) with U-251; > 375 µM (inactive) in the assay with A498; > 375 µM (inactive) with NCI-H226; 60 µM (inactive) with XF498; 231 µM (inactive) with SF-268. The GI50 was > 305 µM (inactive) in the assay on SK-MEL-2; > 375 µM (inactive) in the assay with LOX IMVI; 164 µM (inactive) in the assay on OVCAR-3; > 375 µM (inactive) with KM12; > 375 µM (inactive) with SK-MEL-5; 222 µM (inactive) in the assay with HCC 2998.

The values above are taken from ChEMBL document CHEMBL1201862, “PubChem BioAssay data set” (2004).
